The results in this text go back to paper PMC6949113, “Preclinical evaluation of AT-527, a novel guanosine nucleotide prodrug with potent, pan-genotypic activity against hepatitis C virus” (PLoS ONE, 2020).

The nature of data set [1]: Rat pharmacokinetic study, plasma. Conditions: both sexes, Sprague-Dawley, rat, in vivo, po, 500 mg/kg. It counts as in vivo, Sprague-Dawley rat.
Data set [2] can be described thus: AT-9010 half-life in human hepatocytes (washout). It counts as in vitro ADME. The conditions noted are these: both sexes, plated cryopreserved human hepatocytes, 100 μM AT-511 for 6 h, washout 30 h. The procedure: (§1) Hepatocytes. […] Cryopreserved male mouse (CD1), and fresh male Beagle dog and male cynomolgus monkey hepatocytes were obtained from BioreclamationIVT (Baltimore, MD) and were similarly plated with Matrigel in 6- or 24-well plates and maintained overnight in InVitroGRO™HI medium with Torpedo™ antibiotic (BioreclamationIVT). The protocol described above for measuring AT-511 and its metabolites in Huh-7 cells was repeated with the five different hepatocytes. Untreated cells were collected at 24 h, and the protein content of the cell lysates were determined using a bicinchoninic acid protein assay kit to assess the number of cells in each incubation. Separately, plated human hepatocytes were incubated for 6 h with 100 μM AT-511, followed by washout periods of 0, 2, 6, 18 and 30 h.
(§2) S3 Protocol. LC-MS/MS analysis of AT-511 and metabolites in cultured cells. The supernatant extracts of each hepatocyte and Huh-7 cell incubation were separately analyzed by four different LC-MS/MS methods for quantitation of phosphoramidates, nucleosides, monophosphates, and triphosphates (methods 1, 2, 3 and 4, respectively), using synthetic reference standards of actually and potentially present compounds and using structurally related analogs as internal standards. […]

The target of data set [3] is T1, HCV NS5B polymerase (RdRp) (Hepatitis C virus genotype 1b, UniProt Q9WMX2).
T1 construct: HCV NS5B polymerase (RdRp) assay
The data set can be described thus: HCV NS5B polymerase (RdRp) assay. Format: biochemical. Here is the method: RdRp activity was determined by the incorporation of radiolabeled ribonucleotide into synthesized RNA. […] HCV796 (Southern Research, Frederick, MD) was used as positive control for the assay.

A further data set addresses T2, human DNA polymerase γ (Homo sapiens, UniProt P54098).
T2 construct: purchased CHIMERx (Madison, WI)
The data set is described as follows: Human DNA polymerase inhibition assay, γ. It counts as biochemical. The procedure:
The polymerases were purchased from CHIMERx (Madison, WI). Inhibition of DNA polymerase α activity was assayed in microtiter plates in 20 mM Tris-HCl, pH 8, 5 mM Mg acetate, 0.3 mg/mL BSA, 1mM DTT, 0.1 mM spermine, 0.05 mM dCTP, dTTP and dATP, 10 μCi ^32P-α-dGTP (800 Ci/mmol), 20 μg activated calf thymus DNA and the test compound at indicated concentrations. The DNA polymerase β and γ reaction mixture contained 50 mM Tris-HCl, pH 8.7, KCl (10 mM for β and 100 mM for γ), 10 mM MgCl2, 0.4 mg/mL BSA, 1mM DTT, 15% glycerol, 0.05 mM dCTP, dTTP and dATP, 10 μCi ^32P-α-dGTP (800 Ci/mmol), 20 μg activated calf thymus DNA and test compound at the indicated concentrations. For each assay, samples were run in triplicate, and positive controls were included. The enzyme reactions were allowed to proceed for 30 min at 37 °C followed by transfer onto glass-fiber filter plates and subsequent precipitation with 10% trichloroacetic acid (TCA). Plates were washed five times with 5% TCA, once with 95% ethanol and dried. The radioactive content of each filter was measured and used to determine the extent of inhibition of each polymerase.

The nature of data set [4]: Intracellular metabolism in rat hepatocytes. It counts as in vitro ADME, Sprague Dawley rat. The procedure: as §1, §2

T1 sequence (Q9WMX2 2420-3010): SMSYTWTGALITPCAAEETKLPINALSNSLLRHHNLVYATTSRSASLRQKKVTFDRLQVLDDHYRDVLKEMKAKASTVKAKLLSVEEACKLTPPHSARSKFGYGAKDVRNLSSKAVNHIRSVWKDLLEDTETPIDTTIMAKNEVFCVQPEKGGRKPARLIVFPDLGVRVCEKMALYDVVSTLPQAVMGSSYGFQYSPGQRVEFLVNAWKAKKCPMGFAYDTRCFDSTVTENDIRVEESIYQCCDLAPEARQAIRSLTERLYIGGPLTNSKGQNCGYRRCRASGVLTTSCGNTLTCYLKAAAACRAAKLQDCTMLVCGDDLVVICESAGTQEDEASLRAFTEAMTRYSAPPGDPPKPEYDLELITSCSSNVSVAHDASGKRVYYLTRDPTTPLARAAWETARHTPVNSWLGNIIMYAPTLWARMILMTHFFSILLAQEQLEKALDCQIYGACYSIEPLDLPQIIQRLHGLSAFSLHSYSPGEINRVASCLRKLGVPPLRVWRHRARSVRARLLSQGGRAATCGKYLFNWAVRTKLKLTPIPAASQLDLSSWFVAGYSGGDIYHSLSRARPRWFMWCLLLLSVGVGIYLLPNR
T2 sequence (P54098 whole entry): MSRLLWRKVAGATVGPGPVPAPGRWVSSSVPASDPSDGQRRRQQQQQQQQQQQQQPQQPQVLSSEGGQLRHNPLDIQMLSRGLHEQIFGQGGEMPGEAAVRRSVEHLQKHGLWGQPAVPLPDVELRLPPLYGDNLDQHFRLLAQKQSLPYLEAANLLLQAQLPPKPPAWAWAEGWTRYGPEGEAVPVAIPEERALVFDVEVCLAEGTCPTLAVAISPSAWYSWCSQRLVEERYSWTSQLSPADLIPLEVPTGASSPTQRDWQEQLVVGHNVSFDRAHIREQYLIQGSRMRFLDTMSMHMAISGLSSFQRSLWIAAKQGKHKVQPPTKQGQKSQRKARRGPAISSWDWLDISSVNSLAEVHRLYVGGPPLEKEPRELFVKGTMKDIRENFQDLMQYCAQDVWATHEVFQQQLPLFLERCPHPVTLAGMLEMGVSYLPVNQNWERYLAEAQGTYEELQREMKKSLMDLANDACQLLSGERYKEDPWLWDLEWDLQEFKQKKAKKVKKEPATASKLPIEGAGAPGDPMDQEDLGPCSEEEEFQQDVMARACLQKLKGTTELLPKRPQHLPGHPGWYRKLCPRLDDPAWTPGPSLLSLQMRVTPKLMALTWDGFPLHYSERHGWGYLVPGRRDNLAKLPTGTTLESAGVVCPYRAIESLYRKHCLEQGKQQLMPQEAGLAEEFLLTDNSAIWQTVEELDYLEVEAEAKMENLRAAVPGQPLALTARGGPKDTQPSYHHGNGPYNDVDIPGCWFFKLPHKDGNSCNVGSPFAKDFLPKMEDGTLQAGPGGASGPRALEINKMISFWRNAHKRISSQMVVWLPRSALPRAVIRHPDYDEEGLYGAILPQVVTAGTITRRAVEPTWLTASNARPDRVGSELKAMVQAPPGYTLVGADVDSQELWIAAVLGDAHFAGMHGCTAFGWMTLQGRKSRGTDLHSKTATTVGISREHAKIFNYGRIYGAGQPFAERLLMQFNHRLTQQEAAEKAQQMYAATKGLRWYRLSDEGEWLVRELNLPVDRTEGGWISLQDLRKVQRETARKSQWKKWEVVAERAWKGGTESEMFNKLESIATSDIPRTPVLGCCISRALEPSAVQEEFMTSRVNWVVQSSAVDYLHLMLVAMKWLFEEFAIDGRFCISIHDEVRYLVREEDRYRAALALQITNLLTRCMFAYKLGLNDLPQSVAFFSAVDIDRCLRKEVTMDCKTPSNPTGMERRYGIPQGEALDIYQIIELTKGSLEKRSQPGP

As to `C[C@@]1(F)[C@H](O)[C@@H](CO)O[C@H]1n1cnc2c(=O)[nH]c(N)nc21` [AT-273], in data set [1], the exposure AUC(0-t) turned out to be 40.3 ± 10.9 µM·h, the peak level (Cmax) was 2500 ± 520 nM, the MRT last came to 17.5 ± 2.1 h and the Tmax was 6.34 ± 0.58 h.

For the compound `C[C@@]1(F)[C@H](O)[C@@H](COP(=O)(O)OP(=O)(O)OP(=O)(O)O)O[C@H]1n1cnc2c(=O)[nH]c(N)nc21` [AT-9010], in data set [2], the half-life at 100 μM was 10 h. Further, the IC50 in data set [3] (as a competitive inhibitor of ATP, single assay) was 40.3 µM; in data set [3] (as an alternate substrate for GTP, mean of two assays) it was 0.15 µM; against human DNA polymerase γ it was more than 100 µM. The “AUC0-24, intracellular” value in data set [4] (10 μM AT-511) was determined as 3114 pmol*h/10^6 cells. The “Cmax, intracellular” value in data set [4] (10 μM AT-511, 0-24 h) was 192.0 ± 67.3 pmol/10^6 cells.

By AUC(0-t) is commonly meant exposure summed from dosing to a finite time, without extrapolation to infinity. As a reminder, the Cmax is the maximum level reached in the sampled fluid or tissue. In general, MRT last refers to a mean duration of stay, worked out from the concentration-time curve. The Tmax is the time at which the peak concentration occurs. For orientation: half-life means the time in which the quantity being followed falls by half. High values mean slow loss, low ones fast loss. A word on the IC50: it is the concentration that gives 50% inhibition. Low values mean greater potency, high ones weaker potency.
